According to patent publication US12102432B2, “Uses of transdermal glomerular filtration rate measurement in continuous renal replacement therapy” (MediBeacon Inc., priority 2018, dated 2024):

Key:
[1] = In vitro continuous hemofiltration (CVVH) model, sieving coefficient; type: in vitro ADME, bovine; settings: for Mean sieving coefficient: CVVH
Protocol: The procedure for the CVVH study was conducted using the model CVVH system illustrated in FIG. 5. The CLTM of urea and MB-102 were evaluated with different blood flow rates, ultrafiltration rate (Quf) and hemodiafilters (Table 1). In a closed-loop system, the formed effluent was returned to the blood as a post-filter replacement fluid downstream from the post-hemodiafilter blood sampling port. Pre- and post-hemodiafilter blood samples, and effluent samples were collected concurrently. Six experiments were conducted for each hemodiafilter, and new hemodiafilters and CRRT apparatus were used for each experiment. Sieving coefficient (SC) and CLTM were calculated as follows:
[formula] where Sc is the sieving coefficient; Cuf is the concentration in the effluent; Ca is the concentration of the solute in the pre-filter; and Cv is the concentration of the solute in the post-filter. CLconv=SC×QUF Equation (4) wherein CLconv is the convective clearance for the post-filter replacement; QUF is the ultrafiltration rate.
(§1) All blood samples were collected and centrifuged at 3000 rpm for 10 minutes. The plasma and effluent samples were transferred to cryovials in duplicate and stored at −80° C. until analysis. BUN concentrations were analyzed with Advia 1800 (Siemens Healthcare Diagnostic Inc., Tarrytown, N.Y., USA) having a lower limit of quantification of 5 mg/dL.
(§2) Similarly, six CVVH and CVVHD experiments with each hemodiafilter were used to detect a 25% difference in MB-102 CLTM between hemodiafilters. Assumptions used in these calculations included: a power of 90% and a standard deviation of 10% with a significance level of p<0.05. A two-tailed, unpaired t-test was used to compare differences between the two hemodiafilters, and the analysis of variance was used to compare different QUF and Qd within each hemodiafilter type.

[2] = In vitro continuous hemodialysis (CVVHD) model, saturation coefficient; type: in vitro ADME, bovine; settings: for Saturation coefficient (mean ± SD): blood flow 200 mL/min
Protocol: For CVVHD experiments, the CLTM was assessed using a previously validated in vitro CVVHD model as illustrated in FIG. 6. Commonly used effluent flow rates of 16, 33, 50, and 100 mL/min, and a blood flow rate of 200 mL/min were used. Effluent was prepared according to directions from the manufacturer by mixing sodium bicarbonate powder (NATURALYTE® 4000, Fresenius Medical Care, Waltham, Mass., USA) with distilled water in a 45:1 ratio. After adding MB-102 and urea to the blood, it was recirculated through the circuit for 5 min for uniform coating of the extracorporeal circuit. A single-pass mode of the CVVHD procedure with four different flow rates was run in random order for each hemodiafilter. Blood samples were collected from the pre- and post-filter ports, and spent effluent samples were taken from the effluent port 5 min after initiation of the CVVHD experiments at all four effluent flow rates. These experiments were conducted on 6 new hemodiafilters and CRRT tubing sets. Saturation coefficient (SA) and CLTM were calculated as follows:
[formula] CLdiff=(SA×Qd) Equation (6)
where SA is the saturation coefficient; CUF is the concentration in the effluent; Ca is the concentration of the solute in the pre-filter; CV is the concentration of the solute in the post-filter; CLdiff is the diffusion clearance for post-filter replacement; Qd is the effluent flow rate.
as §1, §2

## Nc1nc(C(=O)N[C@H](CO)C(=O)O)c(N)nc1C(=O)N[C@H](CO)C(=O)O [MB-102, (2R,2′R)-2,2′-((3,6-diaminopyrazine-2,5-dicarbonyl)bis(azanediyl))bis(3-hydroxypropanoic acid)]
[1]; HF1400, ultrafiltration rate 16.7 mL/min
  Mean sieving coefficient: 1.14 ± 0.06
[1]; HF1400, ultrafiltration rate 33.3 mL/min
  Mean sieving coefficient: 1.17 ± 0.03
[1]; HF1400, ultrafiltration rate 50 mL/min
  Mean sieving coefficient: 1.18 ± 0.05
[1]; M150, ultrafiltration rate 16.7 mL/min
  Mean sieving coefficient: 1.17 ± 0.12
[1]; M150, ultrafiltration rate 33.3 mL/min
  Mean sieving coefficient: 1.17 ± 0.07
[1]; M150, ultrafiltration rate 50 mL/min
  Mean sieving coefficient: 1.16 ± 0.07
[1]; three different Quf, both hemodiafilters
  Sieving coefficient (SC): approximately 1
[2]; CVVHD, HF1400, Qd 16.7 mL/min
  Saturation coefficient (mean ± SD): 1.27 ± 0.07
[2]; CVVHD, HF1400, Qd 33.3 mL/min
  Saturation coefficient (mean ± SD): 1.27 ± 0.09
[2]; CVVHD, HF1400, Qd 50 mL/min
  Saturation coefficient (mean ± SD): 1.37 ± 0.07
[2]; CVVHD, HF1400, Qd 100 mL/min
  Saturation coefficient (mean ± SD): 1.02 ± 0.20
[2]; CVVHD, M150, Qd 16.7 mL/min
  Saturation coefficient (mean ± SD): 1.06 ± 0.17
[2]; CVVHD, M150, Qd 33.3 mL/min
  Saturation coefficient (mean ± SD): 1.11 ± 0.06
[2]; CVVHD, M150, Qd 50 mL/min
  Saturation coefficient (mean ± SD): 1.60 ± 0.06
[2]; CVVHD, M150, Qd 100 mL/min
  Saturation coefficient (mean ± SD): 0.84 ± 0.04
[2]; CVVHD, both hemodiafilters
  Saturation coefficient (SA), overall summary in text: approximately 1
[2]; low effluent flow rates (16-50 mL/min)
  mean SA values: approximately unity
